The test system of assay [1] is Ba/F3-KDR-transfected cells. In words: Ba/F3-KDR (minus IL3 or plus IL3) cellular proliferation assay. It is filed as cell-based. As to conditions: 24 h; plus 10 ng/ml murine IL3 (counterscreen); read-out: BAF3-KDR (PLUS IL3) pIC50 (converted). The procedure: (§1) Ba/F3-KDR (Minus IL3 or Plus IL3) (Cellular Proliferation Assay)
(§2) In a 384 well plate, 100 nI of compound dilution in DMSO was sprayed before adding 50 μl cell culture medium (phenol red free RPMI-1640, 10% FBS, 2 mM L-Glutamine and 50 μg/ml Gentamycin) containing 20000 cells per well of Ba/F3-KDR-transfected cells. Cells were put in an incubator at 37° C. and 5% CO2. After 24 hours, 10 μl of Alamar Blue solution (0.5 mM K3Fe(CN)6, 0.5 mM K4Fe(CN)6, 0.15 mM Resazurin and 100 mM Phosphate Buffer) was added to the wells, incubated for 4 hours at 37° C. and 5% CO2 before RFU's (Relative Fluorescence Units) (ex. 540 nm., em. 590 nm.) were measured in a fluororescence plate reader.
(§3) In this assay, the inhibitory effect of different compound concentrations (range 10 μM to 0.1 nM) was determined and used to calculate an IC50 (M) and pIC50 (−log IC50) value. As a counterscreen the same experiment was performed in the presence of 10 ng/ml murine IL3.

The target of assay [2] is T1, Ba/F3-KDR-transfected cells (Homo sapiens, UniProt P35968).
T1 construct: BAF3-KDR (MIN IL3) pIC50; other: minus IL3
The description is as above. The following applies: minus IL3. It is filed as cell-based. How it is done:
as §1, §2, §3

The target in a further assay is FGFR1 (h) (Homo sapiens, UniProt P11362). The assay can be described thus: FGFR1 (enzymatic assay), TR-FRET. As to conditions: 5 μM ATP; read-out: FGFR1 pIC50 (converted). It is filed as biochemical. The procedure:
(§4) In a final reaction volume of 30 μL, FGFR1 (h) (25 ng/ml) was incubated with 50 mM HEPES pH 7.5, 6 mM MnCl2, 1 mM DTT, 0.1 mM Na3VO4, 0.01% Triton-X-100, 500 nM Btn-Flt3 and 5 μM ATP in the presence of compound (1% DMSO final). After incubation for 60 minutes at room temperature the reaction was stopped with 2.27 nM EU-anti P-Tyr, 7 mM EDTA, 31.25 nM SA-XL-665 and 0.02% BSA which was present for 60 minutes at room temperature. Time-Resolved Fluorescence Resonance Energy Transfer (TR-FRET) signal (ex340 nm. Em 620 nm, em 655 nm) was measured afterwards and results are expressed in RFU (Relative Fluorescence Units). In this assay, the inhibitory effect of different compound concentrations (range 10 μM to 0.1 nM) was determined and used to calculate an IC50 (M) and pIC50 (−log IC50) value.

The next assay addresses FGFR4 (h) (Homo sapiens, UniProt P22455). In words: FGFR4 (enzymatic assay), TR-FRET. As to conditions: 5 μM ATP; read-out: FGFR4 pIC50 (converted). It is filed as biochemical. The procedure:
as §4, with “FGFR4” for “FGFR1”, “(60” for “(25”

Assay [3] deals with Ba/F3-FGFR3-transfected cells. The assay can be described thus: Ba/F3-FGFR3 (minus IL3 or plus IL3) cellular proliferation assay. The format is cell-based. The following applies: 24 h; plus 10 ng/ml murine IL3 (counterscreen); read-out: BAF3-FGFR3 (PLUS IL3) pIC50 (converted). How it is done: (§5) Ba/F3-FGFR3 (Minus IL3 or Plus IL3) (Cellular Proliferation Assay)
as §2, with “Ba/F3-FGFR3-transfected” for “Ba/F3-KDR-transfected”
as §3

Assay [4] addresses T2, Ba/F3-FGFR3-transfected cells (Homo sapiens, UniProt P22607).
T2 construct: BAF3-FGFR3 (MIN IL3) pIC50; other: minus IL3
The assay is described as above. It is filed as cell-based. The following applies: minus IL3. How it is done:
as §5
as §2, with “Ba/F3-FGFR3-transfected” for “Ba/F3-KDR-transfected”
as §3

Assay [5] addresses T3, Ba/F3-FGFR1-transfected cells (Homo sapiens, UniProt P11362).
T3 construct: BAF3-FGFR1 (MIN IL3) pIC50; other: minus IL3
In words: Ba/F3-FGFR1 (minus IL3 or plus IL3) cellular proliferation assay. It is filed as cell-based. The following applies: minus IL3. The procedure: (§6) Ba/F3-FGFR1 (Minus IL3 or Plus IL3) (Cellular Proliferation Assay)
as §2, with “nl” for “nI”, “Ba/F3-FGFR1-transfected” for “Ba/F3-KDR-transfected”
(§7) In this assay, the inhibitory effect of different compound concentrations (range 10 μM to 0.1 nM) was determined and used to calculate an IC50 (M) and pIC50 (−log IC50) value.
(§8) As a counterscreen the same experiment was performed in the presence of 10 ng/ml murine IL3.

The subject of assay [6] is Ba/F3-FGFR1-transfected cells. Described as above. The format is cell-based. As to conditions: 24 h; plus 10 ng/ml murine IL3 (counterscreen); read-out: BAF3-FGFR1 (PLUS IL3) pIC50 (converted). How it is done:
as §6
as §2, with “nl” for “nI”, “Ba/F3-FGFR1-transfected” for “Ba/F3-KDR-transfected”
as §7, §8

Some results are limits rather than exact numbers.

The results in this text go back to US9290478B2, “Substituted quinoxalines as FGFR kinase inhibitors” (ASTEX THERAPEUTICS LTD, priority 2010, dated 2016).

Chain of FGFR1 (h) (P11362 22-822): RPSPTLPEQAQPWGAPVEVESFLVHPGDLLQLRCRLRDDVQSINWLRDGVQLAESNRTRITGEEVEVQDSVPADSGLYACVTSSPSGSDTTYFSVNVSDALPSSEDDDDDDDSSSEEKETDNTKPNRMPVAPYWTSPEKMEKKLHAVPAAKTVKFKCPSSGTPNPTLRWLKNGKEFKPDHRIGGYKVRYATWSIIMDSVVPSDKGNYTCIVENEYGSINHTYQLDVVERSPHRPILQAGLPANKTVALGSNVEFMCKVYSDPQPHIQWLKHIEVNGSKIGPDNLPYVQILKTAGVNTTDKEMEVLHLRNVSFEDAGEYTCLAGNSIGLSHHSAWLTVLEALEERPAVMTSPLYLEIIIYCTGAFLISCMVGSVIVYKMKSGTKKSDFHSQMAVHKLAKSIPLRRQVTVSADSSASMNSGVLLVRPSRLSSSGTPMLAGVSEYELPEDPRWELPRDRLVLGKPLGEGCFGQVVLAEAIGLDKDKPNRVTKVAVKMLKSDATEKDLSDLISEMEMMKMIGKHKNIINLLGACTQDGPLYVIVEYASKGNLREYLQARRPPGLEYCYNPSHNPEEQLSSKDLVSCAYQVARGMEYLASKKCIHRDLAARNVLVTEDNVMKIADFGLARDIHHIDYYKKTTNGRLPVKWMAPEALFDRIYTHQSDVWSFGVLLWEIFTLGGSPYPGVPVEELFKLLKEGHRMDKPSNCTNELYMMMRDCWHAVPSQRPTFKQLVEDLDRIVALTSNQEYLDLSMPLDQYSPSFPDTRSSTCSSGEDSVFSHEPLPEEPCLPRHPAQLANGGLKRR
T1 sequence (P35968 whole entry, change not shown): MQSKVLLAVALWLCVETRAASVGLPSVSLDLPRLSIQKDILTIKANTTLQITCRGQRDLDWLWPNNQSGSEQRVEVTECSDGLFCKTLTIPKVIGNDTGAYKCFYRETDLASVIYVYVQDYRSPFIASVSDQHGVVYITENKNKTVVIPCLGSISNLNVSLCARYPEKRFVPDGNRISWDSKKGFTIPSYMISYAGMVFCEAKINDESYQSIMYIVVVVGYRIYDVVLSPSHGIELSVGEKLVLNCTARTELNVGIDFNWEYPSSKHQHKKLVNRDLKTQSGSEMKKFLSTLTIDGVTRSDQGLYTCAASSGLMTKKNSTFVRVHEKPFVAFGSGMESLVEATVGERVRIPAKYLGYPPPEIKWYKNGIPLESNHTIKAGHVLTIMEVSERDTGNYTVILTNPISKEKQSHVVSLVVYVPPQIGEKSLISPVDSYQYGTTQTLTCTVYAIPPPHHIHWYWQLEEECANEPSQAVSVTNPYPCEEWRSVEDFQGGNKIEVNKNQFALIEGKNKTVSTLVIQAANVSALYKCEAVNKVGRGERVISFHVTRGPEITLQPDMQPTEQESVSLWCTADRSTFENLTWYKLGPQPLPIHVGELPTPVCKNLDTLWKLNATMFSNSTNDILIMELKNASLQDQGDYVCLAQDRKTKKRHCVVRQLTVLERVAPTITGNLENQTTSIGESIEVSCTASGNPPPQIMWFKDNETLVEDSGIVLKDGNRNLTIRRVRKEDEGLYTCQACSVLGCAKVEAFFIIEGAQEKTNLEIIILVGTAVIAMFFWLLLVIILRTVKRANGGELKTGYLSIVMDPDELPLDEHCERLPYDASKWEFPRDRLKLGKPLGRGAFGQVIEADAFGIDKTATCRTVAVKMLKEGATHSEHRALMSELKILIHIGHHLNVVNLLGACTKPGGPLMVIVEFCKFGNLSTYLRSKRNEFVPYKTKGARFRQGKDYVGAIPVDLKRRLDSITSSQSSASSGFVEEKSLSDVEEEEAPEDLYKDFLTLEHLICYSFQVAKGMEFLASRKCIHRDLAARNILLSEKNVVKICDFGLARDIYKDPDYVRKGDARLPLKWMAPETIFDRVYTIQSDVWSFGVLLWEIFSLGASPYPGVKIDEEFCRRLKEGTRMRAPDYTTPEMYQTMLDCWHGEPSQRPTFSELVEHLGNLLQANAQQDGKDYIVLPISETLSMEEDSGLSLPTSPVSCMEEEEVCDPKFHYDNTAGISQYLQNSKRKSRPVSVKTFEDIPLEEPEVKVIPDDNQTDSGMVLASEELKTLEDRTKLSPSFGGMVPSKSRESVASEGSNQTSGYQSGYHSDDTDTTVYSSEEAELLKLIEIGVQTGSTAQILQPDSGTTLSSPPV
T2 sequence (P22607 whole entry, change not shown): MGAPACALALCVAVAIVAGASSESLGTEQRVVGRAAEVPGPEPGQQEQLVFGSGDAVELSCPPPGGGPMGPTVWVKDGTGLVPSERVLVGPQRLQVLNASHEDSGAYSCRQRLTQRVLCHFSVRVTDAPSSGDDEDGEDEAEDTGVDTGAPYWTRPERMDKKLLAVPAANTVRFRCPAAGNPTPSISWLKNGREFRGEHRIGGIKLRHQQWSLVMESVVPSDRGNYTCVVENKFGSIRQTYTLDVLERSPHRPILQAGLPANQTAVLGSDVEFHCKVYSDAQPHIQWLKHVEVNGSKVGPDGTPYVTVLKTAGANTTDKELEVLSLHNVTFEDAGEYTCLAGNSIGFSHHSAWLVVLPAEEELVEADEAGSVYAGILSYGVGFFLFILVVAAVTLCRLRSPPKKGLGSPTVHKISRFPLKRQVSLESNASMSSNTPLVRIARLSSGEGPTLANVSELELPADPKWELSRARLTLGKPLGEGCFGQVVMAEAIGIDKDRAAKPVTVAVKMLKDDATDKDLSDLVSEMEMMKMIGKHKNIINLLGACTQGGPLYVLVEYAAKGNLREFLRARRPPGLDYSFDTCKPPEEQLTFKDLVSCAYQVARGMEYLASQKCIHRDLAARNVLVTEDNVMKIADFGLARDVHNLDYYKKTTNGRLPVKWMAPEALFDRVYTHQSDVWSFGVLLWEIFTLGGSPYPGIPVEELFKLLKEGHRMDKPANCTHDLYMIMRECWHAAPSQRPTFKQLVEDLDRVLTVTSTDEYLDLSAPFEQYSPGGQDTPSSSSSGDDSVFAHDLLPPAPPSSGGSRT
Chain of FGFR4 (h) (P22455 22-802): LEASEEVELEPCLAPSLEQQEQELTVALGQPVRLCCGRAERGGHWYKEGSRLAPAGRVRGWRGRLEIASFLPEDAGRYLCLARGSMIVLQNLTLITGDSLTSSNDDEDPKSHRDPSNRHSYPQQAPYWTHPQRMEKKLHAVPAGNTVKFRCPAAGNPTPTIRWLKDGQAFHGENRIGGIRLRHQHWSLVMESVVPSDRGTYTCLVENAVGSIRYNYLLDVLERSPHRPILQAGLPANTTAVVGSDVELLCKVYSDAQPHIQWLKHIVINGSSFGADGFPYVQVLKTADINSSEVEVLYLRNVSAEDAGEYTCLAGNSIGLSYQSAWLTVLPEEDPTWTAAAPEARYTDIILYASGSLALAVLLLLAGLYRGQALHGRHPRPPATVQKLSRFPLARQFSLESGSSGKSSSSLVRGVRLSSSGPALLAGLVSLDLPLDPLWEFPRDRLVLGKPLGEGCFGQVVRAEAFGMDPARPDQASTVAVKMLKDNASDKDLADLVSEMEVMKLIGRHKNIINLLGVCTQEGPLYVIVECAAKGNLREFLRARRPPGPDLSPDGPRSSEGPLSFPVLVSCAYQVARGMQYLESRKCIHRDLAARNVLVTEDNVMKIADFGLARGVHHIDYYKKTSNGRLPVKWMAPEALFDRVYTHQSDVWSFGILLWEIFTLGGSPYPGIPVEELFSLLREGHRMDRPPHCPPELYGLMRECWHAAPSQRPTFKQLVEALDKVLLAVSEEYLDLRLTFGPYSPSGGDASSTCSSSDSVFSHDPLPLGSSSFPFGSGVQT
T3 sequence (P11362 whole entry, change not shown): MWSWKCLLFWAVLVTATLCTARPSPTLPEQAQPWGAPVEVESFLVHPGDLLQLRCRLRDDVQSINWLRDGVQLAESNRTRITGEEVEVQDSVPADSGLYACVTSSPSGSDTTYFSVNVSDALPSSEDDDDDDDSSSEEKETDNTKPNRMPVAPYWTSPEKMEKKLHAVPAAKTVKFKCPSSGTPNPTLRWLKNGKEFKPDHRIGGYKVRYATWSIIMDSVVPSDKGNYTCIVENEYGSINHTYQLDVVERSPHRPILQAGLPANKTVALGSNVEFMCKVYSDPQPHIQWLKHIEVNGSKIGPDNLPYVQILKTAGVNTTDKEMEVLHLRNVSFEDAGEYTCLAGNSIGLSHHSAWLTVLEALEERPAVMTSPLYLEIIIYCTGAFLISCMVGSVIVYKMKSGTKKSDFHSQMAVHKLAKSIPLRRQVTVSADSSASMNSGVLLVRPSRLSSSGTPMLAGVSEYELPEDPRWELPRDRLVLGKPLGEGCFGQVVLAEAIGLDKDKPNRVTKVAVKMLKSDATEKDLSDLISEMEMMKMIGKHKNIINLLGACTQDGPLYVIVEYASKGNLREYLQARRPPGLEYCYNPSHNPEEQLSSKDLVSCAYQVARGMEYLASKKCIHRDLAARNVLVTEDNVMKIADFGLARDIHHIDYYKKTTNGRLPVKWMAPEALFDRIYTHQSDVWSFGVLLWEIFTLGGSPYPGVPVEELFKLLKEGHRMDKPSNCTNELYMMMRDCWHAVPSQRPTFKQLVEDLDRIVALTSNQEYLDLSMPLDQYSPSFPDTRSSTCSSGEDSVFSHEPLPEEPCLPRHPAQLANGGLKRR

Take `COc1cc(OC)cc(C(CCNC(C)C)c2ccc3ncc(-c4cnn(C)c4)nc3c2)c1.Cl` (stereo not drawn) [Compound 29, {3-(3,5-Dimethoxy-phenyl)-3-[3-(1-methyl-1H-pyrazol-4-yl)-quinoxalin-6-yl]-propyl}-isopropyl-amine]: the IC50 is over 10000 nM in assay [1]; 22.9 nM at FGFR1 (h); 275 nM on FGFR4 (h); over 10000 nM in assay [3]; over 10000 nM in assay [6]. Besides, the “BAF3-KDR (MIN IL3) pIC50” value in assay [2] was under 5. Further, the “BAF3-FGFR3 (MIN IL3) pIC50” value in assay [4] is on record as 6.44. Besides, the “BAF3-FGFR1 (MIN IL3) pIC50” value in assay [5] was 6.18.
Consider `COc1cc(OC)cc(C2(c3ccc4ncc(-c5cnn(C)c5)nc4c3)CC2)c1` [Compound 30], for which the IC50 in assay [1] was over 10000 nM; at FGFR1 (h), 91.2 nM; on FGFR4 (h), 479 nM; in assay [3] it was over 10000 nM; in assay [6], over 10000 nM. The “BAF3-KDR (MIN IL3) pIC50” value in assay [2] is listed as under 5. Besides, the “BAF3-FGFR3 (MIN IL3) pIC50” value in assay [4] is listed as 5.63. Moreover, the “BAF3-FGFR1 (MIN IL3) pIC50” value in assay [5] was found to be 5.23.
Take `COc1cc(OC)cc(C(CCNCC(F)(F)F)c2ccc3ncc(-c4cnn(C)c4)nc3c2)c1.Cl` (stereo not drawn) [Compound 33]: the IC50 in assay [1] is over 10000 nM; on FGFR1 (h), 224 nM; on FGFR4 (h) it was about 1000 nM; in assay [3] it was over 10000 nM; in assay [6], over 10000 nM. In assay [2], the “BAF3-KDR (MIN IL3) pIC50” value is given as under 5. Moreover, the “BAF3-FGFR3 (MIN IL3) pIC50” value in assay [4] is given as about 5.11. For the same compound, the “BAF3-FGFR1 (MIN IL3) pIC50” value in assay [5] is 5.11.
`COc1cc(OC)cc(/C(=C/CN(C)C)c2ccc3ncc(-c4cnn(C)c4)nc3c2)c1` [Compound 34]: the IC50 in assay [1] was over 10000 nM; on FGFR1 (h) it was 132 nM; at FGFR4 (h), over 1000 nM; in assay [3], over 10000 nM; in assay [6], over 10000 nM. In addition, the “BAF3-KDR (MIN IL3) pIC50” value in assay [2] is reported as under 5. In assay [4], the “BAF3-FGFR3 (MIN IL3) pIC50” value is reported as about 5.13. In assay [5], the “BAF3-FGFR1 (MIN IL3) pIC50” value came to 5.08.
With `CN(C)CCC(c1ccccc1)c1ccc2ncc(-c3cnn(C)c3)nc2c1` (stereo not drawn) [Compound 35], the IC50 in assay [1] is over 10000 nM; on FGFR1 (h), over 1000 nM; at FGFR4 (h), over 1000 nM; in assay [3] it was over 10000 nM; in assay [6], over 10000 nM. The “BAF3-KDR (MIN IL3) pIC50” value in assay [2] is under 5. In addition, the “BAF3-FGFR3 (MIN IL3) pIC50” value in assay [4] is recorded as under 5. Moreover, in assay [5], the “BAF3-FGFR1 (MIN IL3) pIC50” value is listed as under 5.
For the compound `COc1cc(OC)cc(C(CCCN)c2ccc3ncc(-c4cnn(C)c4)nc3c2)c1.Cl` (stereo not drawn) [Compound 40], the IC50 in assay [1] is over 10000 nM; at FGFR1 (h) it was 490 nM; at FGFR4 (h), over 1000 nM; in assay [3], over 10000 nM; in assay [6], over 10000 nM. The “BAF3-KDR (MIN IL3) pIC50” value in assay [2] is recorded as under 5. The “BAF3-FGFR3 (MIN IL3) pIC50” value in assay [4] is reported as 5.27. Moreover, the “BAF3-FGFR1 (MIN IL3) pIC50” value in assay [5] is listed as 5.
